Here are results for 22 compounds from patent publication US6143749A, “Heterocyclic substituted cyclopentane compounds” (Abbott Laboratories, priority 1996, dated 2000).

Where only a bound is given, the exact number is not on record here.

In one experiment the target is adenosine kinase (Homo sapiens, UniProt P55263). As to the kind of experiment: inhibition of adenosine kinase activity in vitro. It is filed as biochemical. Particulars: Table 1, adenosine kinase. The text has this: The adenosine kinase to be inhibited can be located in vitro, in situ or in vivo. Where the adenosine kinase is located in vitro, adenosine kinase is contacted with the inhibitor compound, typically by adding the compound to an aqueous solution containing the enzyme, radiolabeled substrate adenosine, magnesium chloride and ATP. The enzyme can exist in intact cells or in isolated subcellular fractions containing the enzyme. The enzyme is then maintained in the presence of the inhibitor for a period of time and under suitable physiological conditions. Means for determining maintainence times are well known in the art and depend inter alia on the concentrations of enzyme and the physiological conditions. Suitable physiological conditions are those necessary to maintain adenosine kinase viability and include temperature, acidity, tonicity and the like. Inhibition of adenosine kinase can be performed, by example, according to standard procedures well known in the art (Yamada, et al, Comp. Biochem. Physiol. 1982, 71B: 367-372).
Sequence of adenosine kinase (Homo sapiens, UniProt P55263) (P55263 whole entry, species assumed): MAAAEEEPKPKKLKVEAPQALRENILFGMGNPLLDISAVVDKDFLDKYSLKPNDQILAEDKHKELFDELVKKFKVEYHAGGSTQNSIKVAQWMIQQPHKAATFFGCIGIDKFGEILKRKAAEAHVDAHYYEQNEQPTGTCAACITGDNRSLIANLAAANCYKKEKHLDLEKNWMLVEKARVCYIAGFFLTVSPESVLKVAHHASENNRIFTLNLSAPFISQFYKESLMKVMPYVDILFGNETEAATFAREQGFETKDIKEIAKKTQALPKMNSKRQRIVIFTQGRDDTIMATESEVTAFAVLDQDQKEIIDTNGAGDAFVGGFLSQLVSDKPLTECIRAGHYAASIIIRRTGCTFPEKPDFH
In vitro adenosine kinase activity can be measured using any of the standard procedures well known in the art. By way of example, cells containing adenosine kinase, such as IMR-32 human -neuroblastoma cells, are cultured in the presence and absence of an inhibitor. Inhibition is measured as the ability to inhibit phosphorylation of endogenous or externally applied ^14 C-adenosine by these cells. The cells can be intact or broken. The specificity of adenosine kinase inhibitory activity is determined by studying the effects of inhibitors on adenosine A1 and A2a receptor binding, adenosine deaminase activity and adenosine transport.
Numerous inhibitor compounds of the present invention were tested in vitro and found to inhibit adenosine kinase activity. The results of some representative studies are shown below in Tables 1 and 2.
Turning to `N[C@H]1C[C@@H](n2cc(-c3ccccc3)c3c(Nc4ccccc4)ncnc32)[C@H](O)[C@@H]1O` [drawing 14: R4=NH2; R5=NHPh; R6=Ph], the IC50 is 35 nM.

As to `CC(C)(C)OC(=O)[C@H](CC(N)=O)N[C@H]1C[C@@H](n2cc(I)c3c(Cl)ncnc32)[C@H](O)[C@@H]1O`, the IC50 was 200 nM.

As for `CC(C)(C)OC(=O)CN[C@H]1C[C@@H](n2cc(I)c3c(Cl)ncnc32)[C@H](O)[C@@H]1O` [drawing 14: R4=t-buOCOCH2 NH; R5=Cl; R6=I, N7-((1'R,2'S,3'R,4'S)-2',3'-dihydroxy-4'-(t-butoxycarbonyl-methylene)amino-cyclopentyl)-4-chloro-5-iodo-pyrrolopyrimidine], the IC50 was 28 nM. The same measure, in the same setting: the figure for `O=C(O)CN[C@H]1C[C@@H](n2cc(I)c3c(Cl)ncnc32)[C@H](O)[C@@H]1O` [drawing 14: R4=HO2 CCH2 NH; R5=Cl; R6=I, N7-((1'R,2'S,3'R,4'S)-2',3'-dihydroxy-4'-(carboxymethylene)amino-cyclopentyl)-4-chloro-5-iodo-pyrrolopyrimidine] is 150 nM; for `N[C@@H]1CC[C@H](n2cc(I)c3c(Cl)ncnc32)C1` it is 330 nM; for `N[C@@H]1C=C[C@H](n2cc(I)c3c(Cl)ncnc32)C1` it is 3000 nM. Same read-out and setting: with `Nc1ncnc2c1c(I)cn2[C@@H]1C[C@H](Nc2ncccn2)[C@@H](O)[C@H]1O` the figure was 38 nM. Regarding `NC(=O)C[C@H](N[C@H]1C[C@@H](n2cc(I)c3c(Cl)ncnc32)[C@H](O)[C@@H]1O)C(=O)O`, inhibition was half-maximal at 48 nM (IC50). The same measure, in the same setting: the figure for `Nc1ncnc2c1c(I)cn2[C@@H]1C[C@H](Nc2ccc(Cl)nn2)[C@@H](O)[C@H]1O` is 20 nM. Compound `N[C@H]1C[C@@H](n2cc(C#Cc3ccccc3)c3c(C#Cc4ccccc4)ncnc32)[C@H](O)[C@@H]1O` [drawing 14: R4=NH2; R5=C≡C--Ph; R6=C≡C--Ph] displayed an IC50 of 4 nM.

Take `CC(C)(C)OC(=O)[C@H](CC(N)=O)N([C@H]1C[C@@H](n2cc(I)c3c(Cl)ncnc32)[C@H](O)[C@@H]1O)S(=O)(=O)c1ccc([N+](=O)[O-])cc1[N+](=O)[O-]`: the IC50 worked out at 350 nM. `O[C@@H]1[C@H](O)[C@@H](Nc2ccc(Br)cc2)C[C@H]1n1cc(I)c2c(Cl)ncnc21` showed an IC50 of 15 nM.

Staying with this experiment, now noted: Table 2, adenosine kinase.
As to `CC(=O)O[C@@H]1[C@H](OC(C)=O)[C@@H](OC(C)=O)C[C@H]1n1cc(Cl)c2c(Cl)ncnc21` [drawing 24: R5=Cl; R6=Cl, N7-((1'R,2'S,3'R,4'S)-2',3',4'-triacetoxycyclopentyl)-4,5-dichloro-pyrrolopyrimidine], the IC50 is over 10000 nM.

For the compound `NCC(=O)N[C@H]1C[C@@H](n2cc(I)c3c(Cl)ncnc32)[C@H](O)[C@@H]1O` [drawing 27: R=NH2 CH2 CO, N7-((1'R,2'S,3'R,4'S)-2',3'-dihydroxy-4'-(amino-acetyl)amino-cyclopentyl)-4-chloro-5-iodo-pyrrolopyrimidine], half-maximal inhibition (IC50) was put at 32 nM. The same measure, in the same setting: the figure for `COC(=O)N[C@H]1C[C@@H](n2cc(I)c3c(Cl)ncnc32)[C@H](O)[C@@H]1O` [drawing 27: R=CH3 OCO, N7-((1'R,2'S,3'R,4'S)-2',3'-dihydroxy-4'-(methoxycarbonyl)amino-cyclopentyl)-4-chloro-5-iodo-pyrrolo-pyrimidine] is 300 nM; for `O=C(Cc1cccnc1)N[C@H]1C[C@@H](n2cc(I)c3c(Cl)ncnc32)[C@H](O)[C@@H]1O` it is 250 nM. On the same count and under the same terms, with `O=C(Cc1ccccn1)N[C@H]1C[C@@H](n2cc(I)c3c(Cl)ncnc32)[C@H](O)[C@@H]1O` the figure was 175 nM. On to `CN(C)CC(=O)N[C@H]1C[C@@H](n2cc(I)c3c(Cl)ncnc32)[C@H](O)[C@@H]1O` [drawing 27: R=(CH3)2 NCH2 CO, N7-((1'R,2'S,3'R,4'S)-2',3'-dihydroxy-4'-(dimethylaminoacetyl)amino-cyclopentyl)-4-chloro-5-iodo-pyrrolopyrimidine], for which half-maximal inhibition (IC50) was put at 480 nM. The same measure, in the same setting: with `CC(=O)O[C@@H]1[C@H](OC(C)=O)[C@@H](OC(C)=O)C[C@H]1n1cc(I)c2c(Cl)ncnc21` [drawing 24: R5=Cl; R6=I, N7-((1'R,2'S,3'R,4'S)-2',3',4'-triacetoxycyclopentyl)-4-chloro-5-iodo-pyrrolopyrimidine] the figure was over 100000 nM.

For the next experiment, the system named is adenosine kinase.
Experiment: not given
Particulars: literature, in words; cited from earlier work.
In the case of `C[C@H]1O[C@@H](n2cc(I)c3c(N)ncnc32)[C@H](O)[C@@H]1O` [5'-deoxy-5-iodotubercidin], the “reported to inhibit adenosine kinase; the most potent” value (from here on “reported to inhibit adenosine kinase”) is “most potent”. Turning to `NC[C@H]1O[C@@H](n2cnc3c(N)ncnc32)[C@H](O)[C@@H]1O` [5'-amino,5'-deoxyadenosine], the “reported to inhibit adenosine kinase” value is recorded as “most potent”.

For `Nc1ncnc2c1c(I)cn2[C@@H]1O[C@H](CO)[C@@H](O)[C@H]1O` [5-iodotubercidin], the “reported to inhibit adenosine kinase” value is recorded as “most potent”.

The term IC50 denotes the point on the concentration scale where inhibition reaches its midpoint. Low values mean greater potency, high ones weaker potency.
